Here are results for 27 compounds from patent US20080051420A1, “New Compounds 317” (AstraZeneca AB, priority 2006, published 2008).

T1 sequence (P56817 22-460): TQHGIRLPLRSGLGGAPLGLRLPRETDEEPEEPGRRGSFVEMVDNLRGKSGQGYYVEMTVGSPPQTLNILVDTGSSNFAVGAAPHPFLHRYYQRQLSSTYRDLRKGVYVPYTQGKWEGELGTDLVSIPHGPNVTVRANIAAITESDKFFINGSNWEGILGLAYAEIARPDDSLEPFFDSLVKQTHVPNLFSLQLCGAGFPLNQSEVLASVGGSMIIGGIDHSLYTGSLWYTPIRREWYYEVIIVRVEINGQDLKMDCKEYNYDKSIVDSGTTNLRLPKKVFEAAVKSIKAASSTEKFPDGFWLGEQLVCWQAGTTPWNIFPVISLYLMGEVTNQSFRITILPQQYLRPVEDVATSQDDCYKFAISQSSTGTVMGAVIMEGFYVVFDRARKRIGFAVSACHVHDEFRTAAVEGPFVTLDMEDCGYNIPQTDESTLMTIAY

One test addresses T1, human β-secretase (Homo sapiens, UniProt P56817).
T1 construct: The soluble part of the human β-secretase (AA 1-AA 460) was cloned; made in house
As to the kind of experiment: TR-FRET assay (β-secretase enzyme, sBACE-Fc). Format: biochemical.
Settings: not given
Here is the method:
The enzyme used in the IGEN Cleavage-, Fluorescent-, TR-FRET- and BiaCore assays is described as follows:
The soluble part of the human β-secretase (AA 1-AA 460) was cloned into the ASP2-F10-1-IRES-GFP-neoK mammalian expression vector. The gene was fused to the Fc domain of IgG1 (affinity tag) and stably cloned into HEK 293 cells. Purified sBACE-Fc is stored in Tris buffer, pH 9.2 and has a purity of 95%.
Enzyme was diluted to 6 μg/mL and the substrate (Europium)[…](Qsy7) to 200 nM in reaction buffer (NaAcetate, chaps, triton x-100, EDTA pH 4.5). Compounds were diluted to the desired concentration in dimethyl sulfoxide (final dimethyl sulfoxide concentration in assay is 5%). […] Enzyme (9 μL) and 1 μL of compound in dimethyl sulfoxide was added to the plate, mixed and pre-incubated for 10 min. Substrate (10 μL) was added and the reaction proceeded in the dark for 15 min at RT. The reaction was stopped with the addition of 7 μL NaAcetate, pH 9. […] The dimethyl sulfoxide control defined the 100% activity level and 0% activity was defined by exclusion of the enzyme (using reaction buffer instead).
For orientation: TR-FRET usually uses a lanthanide donor and a delayed reading to cut background.
With `COc1ccc(C2(c3cccc(-c4cc(OC)cc(OS(C)(=O)=O)c4)c3)N=C(N)N3CCN=C32)cc1` (stereo not drawn) [Example 73, 3′-[5-Amino-7-(4-methoxyphenyl)-2,7-dihydro-3H-imidazo[1,5-a]imidazol-7-yl]-5-methoxybiphenyl-3-yl methanesulfonate acetate], the IC50 (commonly the concentration needed to halve the response being measured) was 190 nM.

The same test, now with this note: read-out: IC50 in TR-FRET assay.
For the compound `CS(=O)(=O)Oc1cccc(C2(c3cccc(-c4cccc(Cl)c4)c3)N=C(N)N3CCCN=C32)c1` (stereo not drawn) [Example 117, 3-[6-Amino-8-(3′-chlorobiphenyl-3-yl)-2,3,4,8-tetrahydroimidazo[1,5-a]pyrimidin-8-yl]phenyl methanesulfonate], the IC50 turned out to be 252 nM.

Consider `COc1cccc(-c2cccc(C3(c4cccc(OS(=O)(=O)C(F)(F)F)c4)N=C(N)N4CCCN=C43)c2)c1` (stereo not drawn) [Example 129, 3-[6-Amino-8-(3′-methoxybiphenyl-3-yl)-2,3,4,8-tetrahydroimidazo[1,5-a]pyrimidin-8-yl]phenyl trifluoromethanesulfonate], for which the half-inhibitory concentration (IC50) came out at 464 nM.

Regarding `CCCS(=O)(=O)Oc1ccc(C2(c3cccc(-c4cc(Cl)ccc4Cl)c3)N=C(N)N3CCCN=C32)cc1` (stereo not drawn) [Example 63, 4-[6-Amino-8-(2′,5′-dichlorobiphenyl-3-yl)-2,3,4,8-tetrahydroimidazo[1,5-a]pyrimidin-8-yl]phenyl propane-1-sulfonate 0.75 acetate], the IC50 was found to be 912 nM.

Consider “4-[5-Amino-7-(3′,5′-dichlorobiphenyl-3-yl)-2,7-dihydro-3H-imidazo[1,5-a]imidazol-7-yl]phenyl methanesulfonate 0.25 acetate [Example 75]”, for which the concentration for half-maximal inhibition (IC50) was 146 nM.

In the case of `CCCS(=O)(=O)Oc1cccc(C2(c3cccc(-c4cccc(OC)c4)c3)N=C(N)N3CCCN=C32)c1` (stereo not drawn) [Example 124, 3-[6-Amino-8-(3′-methoxybiphenyl-3-yl)-2,3,4,8-tetrahydroimidazo[1,5-a]pyrimidin-8-yl]phenyl propane-1-sulfonate], the IC50 worked out at 528 nM.

In the case of `NC1=NC(c2cccc(OS(=O)(=O)C3CC3)c2)(c2cccc(-c3cc(Cl)cc(Cl)c3)c2)C2=NCCCN12` (stereo not drawn) [Example 126, 3-[6-Amino-8-(3′,5′-dichlorobiphenyl-3-yl)-2,3,4,8-tetrahydroimidazo[1,5-a]pyrimidin-8-yl]phenyl cyclopropanesulfonate], the concentration for half-maximal inhibition (IC50) was found to be 156 nM.

With `CCCS(=O)(=O)Oc1ccc(C2(c3cccc(-c4cccc(C(F)(F)F)c4)c3)N=C(N)N3CCCN=C32)cc1` (stereo not drawn) [Example 60, 4-{6-Amino-8-[3′-(trifluoromethyl)biphenyl-3-yl]-2,3,4,8-tetrahydroimidazo[1,5-a]pyrimidin-8-yl}phenyl propane-1-sulfonate 0.5 acetate], the IC50 turned out to be 493 nM.

On to `CC(C)S(=O)(=O)Oc1ccc(C2(c3cccc(-c4cccc(Cl)c4)c3)N=C(N)N3CCN=C32)cc1` (stereo not drawn) [Example 82, 4-[5-Amino-7-(3′-chlorobiphenyl-3-yl)-2,7-dihydro-3H-imidazo[1,5-a]imidazol-7-yl]phenyl propane-2-sulfonate 0.5 acetate], for which the half-inhibitory concentration (IC50) is 484 nM.

In the case of `CS(=O)(=O)Oc1ccc(C2(c3cccc(-c4cnccn4)c3)N=C(N)N3CCCN=C32)cc1` (stereo not drawn) [Example 32, 4-[6-Amino-8-(3-pyrazin-2-ylphenyl)-2,3,4,8-tetrahydroimidazo[1,5-a]pyrimidin-8-yl]phenyl methanesulfonate acetate], the 50% inhibitory concentration (IC50) was determined as 501 nM.

As for `CS(=O)(=O)Oc1ccc(C2(c3cccc(-c4cncc(F)c4)c3)N=C(N)N3CCCN=C32)cc1` (stereo not drawn) [Example 33, 4-{6-Amino-8-[3-(5-fluoropyridin-3-yl)phenyl]-2,3,4,8-tetrahydroimidazo[1,5-a]pyrimidin-8-yl}phenyl methanesulfonate acetate], the IC50 stood at 397 nM.

With `NC1=NC(c2cccc(OS(=O)(=O)C(F)(F)F)c2)(c2cccc(-c3cc(Cl)cc(Cl)c3)c2)C2=NCCCN12` (stereo not drawn) [Example 128, 3-[6-Amino-8-(3′,5′-dichlorobiphenyl-3-yl)-2,3,4,8-tetrahydroimidazo[1,5-a]pyrimidin-8-yl]phenyl trifluoromethanesulfonate], the concentration for half-maximal inhibition (IC50) turned out to be 214 nM.

Take `CN(C)C(=O)c1cccc(C2(c3cccc(-c4cccnc4F)c3)N=C(N)N3CC(F)(F)CN=C32)c1` (stereo not drawn) [Example 145, 3-{6-Amino-3,3-difluoro-8-[3-(2-fluoropyridin-3-yl)phenyl]-2,3,4,8-tetrahydroimidazo[1,5-a]pyrimidin-8-yl}-N,N-dimethylbenzamide]: the IC50 came out at 224 nM.

For the compound `CS(=O)(=O)Oc1ccc(C2(c3cccc(-c4cccc(Cl)c4)c3)N=C(N)N3CCN=C32)cc1` (stereo not drawn) [Example 76, 4-[5-Amino-7-(3′-chlorobiphenyl-3-yl)-2,7-dihydro-3H-imidazo[1,5-a]imidazol-7-yl]phenyl methanesulfonate 0.5 acetate], the 50% inhibitory concentration (IC50) is 226 nM.

`COc1cncc(-c2cccc(C3(c4ccc(OS(=O)(=O)C(C)C)cc4)N=C(N)N4CCN=C43)c2)c1` (stereo not drawn) [Example 85, 4-{5-Amino-7-[3-(5-methoxypyridin-3-yl)phenyl]-2,7-dihydro-3H-imidazo[1,5-a]imidazol-7-yl}phenyl propane-2-sulfonate 0.5 acetate]: the IC50 worked out at 1030 nM.

Consider `CCOc1cccc(-c2cccc(C3(c4ccc(OS(C)(=O)=O)cc4)N=C(N)N4CCCN=C43)c2)c1` (stereo not drawn) [Example 44, 4-[6-Amino-8-(3′-ethoxybiphenyl-3-yl)-2,3,4,8-tetrahydroimidazo[1,5-a]pyrimidin-8-yl]phenyl methanesulfonate 0.5 acetate], for which the concentration for half-maximal inhibition (IC50) came out at 471 nM.

As for `CCCS(=O)(=O)Oc1ccc(C2(c3cccc(-c4cncc(OC)c4)c3)N=C(N)N3CCCN=C32)cc1` (stereo not drawn) [Example 64, 4-{6-Amino-8-[3-(5-methoxypyridin-3-yl)phenyl]-2,3,4,8-tetrahydroimidazo[1,5-a]pyrimidin-8-yl}phenyl propane-1-sulfonate 0.75 acetate], the IC50 was 96 nM.

As to `CC(C)S(=O)(=O)Oc1ccc(C2(c3cccc(-c4cc(Cl)cc(Cl)c4)c3)N=C(N)N3CCN=C32)cc1` (stereo not drawn) [Example 81, 4-[5-Amino-7-(3′,5′-dichlorobiphenyl-3-yl)-2,7-dihydro-3H-imidazo[1,5-a]imidazol-7-yl]phenyl propane-2-sulfonate 0.5 acetate], the 50% inhibitory concentration (IC50) was 417 nM.

For the compound `CS(=O)(=O)Oc1cccc(C2(c3cccc(-c4cc(Cl)cc(Cl)c4)c3)N=C(N)N3CCCN=C32)c1` (stereo not drawn) [Example 116, 3-[6-Amino-8-(3′,5′-dichlorobiphenyl-3-yl)-2,3,4,8-tetrahydroimidazo[1,5-a]pyrimidin-8-yl]phenyl methanesulfonate], the half-inhibitory concentration (IC50) was determined as 285 nM.

Consider `NC1=NC(c2ccc(OS(=O)(=O)C3CC3)cc2)(c2cccc(-c3cccc(C(F)(F)F)c3)c2)C2=NCCCN12` (stereo not drawn) [Example 70, 4-{6-Amino-8-[3′-(trifluoromethyl)biphenyl-3-yl]-2,3,4,8-tetrahydroimidazo[1,5-a]pyrimidin-8-yl}phenyl cyclopropane sulfonate 0.75 acetate], for which the IC50 was 620 nM.

For the compound `NC1=NC(c2ccc(OS(=O)(=O)C3CC3)cc2)(c2cccc(-c3cc(Cl)cc(Cl)c3)c2)C2=NCCCN12` (stereo not drawn) [Example 66, 4-[6-Amino-8-(3′,5′-dichlorobiphenyl-3-yl)-2,3,4,8-tetrahydroimidazo[1,5-a]pyrimidin-8-yl]phenyl cyclopropanesulfonate 0.75 acetate], the IC50 worked out at 66 nM.

Consider `CCCS(=O)(=O)Oc1ccc(C2(c3cccc(-c4cccc(Cl)c4)c3)N=C(N)N3CCCN=C32)cc1` (stereo not drawn) [Example 57, 4-[6-Amino-8-(3′-chlorobiphenyl-3-yl)-2,3,4,8-tetrahydroimidazo[1,5-a]pyrimidin-8-yl]phenyl propane-1-sulfonate 0.75 acetate], for which the IC50 stood at 71 nM.

For `CS(=O)(=O)Oc1ccc(C2(c3cccc(-c4cccnc4F)c3)N=C(N)N3CCN=C32)cc1` (stereo not drawn) [Example 78, 4-{5-Amino-7-[3-(2-fluoropyridin-3-yl)phenyl]-2,7-dihydro-3H-imidazo[1,5-a]imidazol-7-yl}phenyl methanesulfonate 0.5 acetate], the half-inhibitory concentration (IC50) stood at 844 nM.

As for `COc1ccc(C2(c3cccc(-c4cc(OC)cc(OS(C)(=O)=O)c4)c3)N=C(N)N3CCCN=C32)cc1` (stereo not drawn) [Example 52, 3′-[6-Amino-8-(4-methoxyphenyl)-2,3,4,8-tetrahydroimidazo[1,5-a]pyrimidin-8-yl]-5-methoxybiphenyl-3-yl methanesulfonate acetate], the half-maximal inhibitory concentration (IC50) was determined as 43 nM.

As to `CCCS(=O)(=O)Oc1ccc(C2(c3cccc(-c4ccc(F)c(OC)c4)c3)N=C(N)N3CCCN=C32)cc1` (stereo not drawn) [Example 61, 4-[6-Amino-8-(4′-fluoro-3′-methoxybiphenyl-3-yl)-2,3,4,8-tetrahydroimidazo[1,5-a]pyrimidin-8-yl]phenyl propane-1-sulfonate 0.75 acetate], the 50% inhibitory concentration (IC50) worked out at 671 nM.

As to `Cc1cc(C)cc(-c2cccc(C3(c4cccc(OS(C)(=O)=O)c4)N=C(N)N4CCCN=C43)c2)c1` (stereo not drawn) [Example 122, 3-[6-Amino-8-(3′,5′-dimethylbiphenyl-3-yl)-2,3,4,8-tetrahydroimidazo[1,5-a]pyrimidin-8-yl]phenyl methanesulfonate], the IC50 came out at 69 nM.

On to `COc1cccc(-c2cccc(C3(c4ccc(OS(=O)(=O)C(C)C)cc4)N=C(N)N4CCN=C43)c2)c1` (stereo not drawn) [Example 80, 4-[5-Amino-7-(3′-methoxybiphenyl-3-yl)-2,7-dihydro-3H-imidazo[1,5-a]imidazol-7-yl]phenyl propane-2-sulfonate 0.5 acetate], for which the concentration for half-maximal inhibition (IC50) was 1380 nM.
